Data on two compounds can be found in US20100256090A1, “Alginic Acid with Low Molecular Weight, Its Salts, Uses, Preparative Methods, Pharmaceutical Compositions and Foods” (priority 2007, published 2010).

Assay [1] concerns hypertension subjects. The experiment in a line: Clinical Example 1: blood pressure of hypertension subjects after oral granule or enteric capsule. Type of assay: in vivo, human. The text has this: This clinical example explains the effects of the low molecular weight alginate salts of the present invention and the effects of the low molecular weight alginate salts of the comparative example in improving hypertension.
Male and female hypertension subjects without other disease were selected, 360 for each sex, aged from 38 to 62 with an average age of 48, whose systolic blood pressure (SBP)(s) were from 155 to 165 mmHg and diastolic blood pressure (DBP)(s) were from 100 to 125 mmHg, said SBP(s) and DBP(s) were measured in resting state. The subjects were randomly grouped, 30 subjects for each group, and orally took granule of low molecular weight potassium alginate or enteric capsule of alginic acid with low molecular weight 1 to 3 times per day with a daily dose of 50 to 200 mg/Kg according to Table 2, and blood pressures before and 24 hours after administration were measured. The granule of low molecular weight potassium alginate was prepared in the following way: potassium alginate was prepared using the alginic acid with low molecular weight according to examples 1 to 10 or comparative example 1, and then the potassium alginate was prepared into granule according to the method of example 11 or comparative example 2. The enteric capsule of alginic acid with low molecular weight was prepared according to the method of example 11 or comparative example 2. Criterion of therapeutical effect made by China Hypertension League was referred to, that is, the systolic blood pressure reduces by more than 15 mmHg and the diastolic blood pressure reduces by more than 10 mmHg 24 hours after the administration.

Assay [2] deals with Male Wister rats feed with high lipid diet. The assay can be described thus: Clinical Example 6: prevention of blood lipid increase in rats on high lipid diet. In kind it is in vivo. Conditions: conclusion from Table 7, one month. Here is the method:
This clinical example explains the effects of the low molecular weight alginate salt of the present invention and the effects of the low molecular weight alginate salt of the comparative example in preventing increase of blood lipid when they are added into high lipid diet.
Male Wister rats weighted from 180 to 200 g were randomly divided into 13 groups, 8 for each group, wherein one group was designated as a blank group and feed with normal diet, one group was designated as a control group and feed with a high lipid diet comprising 1 wt % of cholesterol, 0.5 wt % of cholate, 10 wt % of lard oil and 10 wt % of yolk, and the remaining groups were feed with the high lipid diet and were given through stomach the potassium alginate aqueous solution according to the present invention for three times every day such that the daily intake of potassium alginate for each rat reached […]. After one month of feeding, lipoprotein in serum, total cholesterol (TC), triglyeride (TG), high density lipoprotein cholesterol (HDL-C) and low density lipoprotein cholesterol as well as very low density lipoprotein cholesterol [(LDL+VLDL)-C] were measured using enzymatic methods commonly used in the clinic (for example, CHOD-PAP to measure TC and GPO-PAP to measure TG), and the results are shown in Table 7.

In assay [3] the test system is hypertension subjects. The assay can be described thus: Clinical Example 7: blood pressure of hypertension subjects taking milk powder with potassium alginate. Conditions: conclusion from Table 8, one month use of milk powder. Type of assay: in vivo, human. The procedure: This clinical example explains the effects of the low molecular weight alginate salt of the present invention and the effects of the low molecular weight alginate salt of the comparative example in reducing hypertension when they are added into milk powder.
Fresh milk containing 8 wt % of solid content was added with potassium alginate until the content of the potassium alginate reached 25 wt % in term of the solid content weight, the milk was then spray dried at 150° C. to obtain a milk powder.
Male and female hypertension subjects without other disease were selected, 48 for each sex, aged from 40 to 65 with an average age of 54, whose SBP(s) were from 145 to 155 mmHg and DBP(s) were from 120 to 125 mmHg, said SBP(s) and DBP(s) were measured in resting state. The subjects were randomly grouped, 8 subjects for each group, and took the milk power after infusing it, wherein the daily dose of potassium alginate reached 10 to 30 mg/Kg and the milk power was taken continuously for one month.

The compound `NS(=O)(=O)c1cc2c(cc1Cl)NCNS2(=O)=O` [Positive Control, Hydrochlorothiazide] gave an effective rate in assay [1] (effective: SBP reduces by more than 15 mmHg and DBP by more than 10 mmHg 24 hours after administration, oral) of 70.1%. Besides, the “average SBP before administration” value in assay [1] (first number of SBP/DBP, baseline, resting state, hypertension subjects, 30 per group) turned out to be 162 mmHg. Also, the “average SBP after administration 24 h” value in assay [1] (first number of SBP/DBP, oral, 1 to 3 times per day, daily dose 50 to 200 mg/Kg per Table 2, 24 hours after administration) is reported as 121 mmHg. Further, the “average DBP before administration” value in assay [1] (second number of SBP/DBP, baseline, resting state, hypertension subjects, 30 per group) was 118 mmHg. Moreover, the “average DBP after administration 24 h” value in assay [1] (second number of SBP/DBP, oral, 1 to 3 times per day, daily dose 50 to 200 mg/Kg per Table 2, 24 hours after administration) came out at 95 mmHg.
On to “alginic acid with low molecular weight [Comparative Example 1]”, for which, in assay [2], the “blood lipid increase preventing effect (in words)” value is on record as “inferior”. For the same compound, in assay [3], the “blood pressure reducing effect (in words)” value was “inferior”.
